# Measurements from ChEMBL document CHEMBL1201862, “PubChem BioAssay data set” (2004).
#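 1) Cells in 96-well plates. 2) Compound, 48 h, 5 concentrations. 3) Linear interpolation between surrounding doses. 4) Unreached endpoint = highest concentration. GI50 marks 50% less growth.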 The source made the active and inactive calls. Cut-off read from the data, not from the text of the source: active = GI50 up to about 1.1 µM and inactive = higher.
# What was measured:
# Assay in all cases: growth of human tumour cells (NCI), 48 h
# RXF 631 = system: RXF 631
# DMS-114 = system: DMS-114
# XF498 = system: XF498
# M19-MEL = system: M19-MEL
# DMS-273 = system: DMS-273
# DLD-1 = system: DLD-1
# BT-549 = system: BT-549
# SNB-78 = system: SNB-78
# HOP-18 = system: HOP-18
SMILES,GI50 (M19-MEL),GI50 (DMS-273),GI50 (DLD-1),GI50 (BT-549),GI50 (SNB-78),also measured
Cc1cc(=O)oc2cc(OCCCOc3ccc4c(C)cc(=O)oc4c3)ccc12,> 100 µM (inactive),91.4 µM (inactive),> 100 µM (inactive),,,GI50 (RXF 631): > 100 µM (inactive); GI50 (DMS-114): > 100 µM (inactive); GI50 (XF498): 31.3 µM (inactive)
CC(=O)OCCOCn1c2c(c(=O)[nH]c1=O)CCC2,,,,> 100 µM (inactive),,
COC(=O)c1ccc(Cc2cc(Cc3ccc(C(=O)OC)cc3)cc(Cc3ccc(C(=O)OC)cc3)c2)cc1,,,,> 25 µM (inactive),,
CN(C)CCNC(=O)Cc1ccccc1Nc1c(Cl)cccc1Cl,14.8 µM (inactive),16.7 µM (inactive),14.2 µM (inactive),,17.7 µM (inactive),GI50 (DMS-114): 17.7 µM (inactive)
C=CCc1cccc2cc(C(N)=O)c(=N)oc12,,,,> 100 µM (inactive),,
c1ccc(C2CC(N3CCOCC3)=Nc3ccccc3N2)cc1 (centres undefined),,,,> 100 µM (inactive),,
COc1ccc(O)c(C#N)c1C#N,> 100 µM (inactive),> 100 µM (inactive),,,> 100 µM (inactive),GI50 (XF498): > 100 µM (inactive)
Cc1nc2cn3c(c2c(=O)[nH]1)CCCCC3,,,,> 100 µM (inactive),,
CCOC(=O)N1C2C=C(C)C(ON2C(=O)c2ccccc2)C2C(C)C(=O)N21 (centres undefined),> 100 µM (inactive),> 100 µM (inactive),> 100 µM (inactive),,> 100 µM (inactive),GI50 (HOP-18): > 100 µM (inactive); GI50 (DMS-114): > 100 µM (inactive); GI50 (XF498): > 100 µM (inactive)
Cc1nnc(N/N=C(/C(=O)C(C#N)c2ccccc2)C(C#N)c2ccccc2)n1N (centres undefined),2.74 µM (inactive),17.7 µM (inactive),22.6 µM (inactive),,> 51.1 µM (inactive),GI50 (HOP-18): 15.2 µM (inactive); GI50 (DMS-114): 3.01 µM (inactive)
Oc1ccc(/C=N/CC2CCCN3CCCCC23)cc1 (centres undefined),,,,21.3 µM (inactive),,
CO[C@@]12[C@H](COC(N)=O)C3=C(C(=O)C(C)=C(N)C3=O)N1C[C@H]1[C@@H]2N1C (some centres undefined) [PORFIROMYCIN],2.74 µM (inactive),0.401 µM (active),9.62 µM (inactive),12.2 µM (inactive),9.68 µM (inactive),GI50 (HOP-18): 4.75 µM (inactive); GI50 (XF498): 3.61 µM (inactive)
CC1=C(C(=O)Nc2ccc([N+](=O)[O-])cc2)C(c2ccc3c(c2)OCO3)C(C(=O)Nc2ccc([N+](=O)[O-])cc2)=C(C)N1,13.3 µM (inactive),9.77 µM (inactive),12 µM (inactive),,68.4 µM (inactive),GI50 (HOP-18): 23.3 µM (inactive); GI50 (DMS-114): 8.55 µM (inactive)
COc1ccc(N2C(=O)C3c4[nH]c5ccccc5c4C4c5ccccc5CC4C3C2=O)cc1 (centres undefined),,,,> 100 µM (inactive),,
CC(N)C(C)Cc1ccccc1 (centres undefined),,,,> 100 µM (inactive),,
Cc1ccccc1NC(=O)C(=O)CC(=O)c1sc(Nc2ccccc2[N+](=O)[O-])nc1C,,,,30.7 µM (inactive),,
Cc1ccc2c(c1)C(=O)c1nc(C)ccc1C2=O,,,,53.7 µM (inactive),,
N=C(N)N/N=C\c1ccc(C2CCNCC2)cc1,,,,> 100 µM (inactive),,
CC(C(=O)N1c2ccccc2Sc2ccccc21)N1c2ccccc2Sc2ccccc21 (centres undefined),,,,> 100 µM (inactive),,
O=C(O)CN(c1ccccc1)S(=O)(=O)c1ccc(NC(=O)c2ccccc2)cc1,> 100 µM (inactive),> 100 µM (inactive),> 100 µM (inactive),,,GI50 (HOP-18): > 100 µM (inactive); GI50 (XF498): > 100 µM (inactive)
COc1ccc(C(=O)c2[nH]c(Nc3cc(C)ccn3)c(C(=S)Nc3ccccc3)c2N)cc1,,,,19.6 µM (inactive),,

SMILES,GI50 (M19-MEL),GI50 (DMS-273),GI50 (DLD-1),GI50 (BT-549),GI50 (SNB-78),also measured
O=C(c1cccc(F)c1F)N1CCc2c([nH]c3ccccc23)C1c1ccc2c(c1)OCO2 (centres undefined),,,,40.3 µM (inactive),,
C=C(C)C(=O)O[C@H]1C[C@@]23O[C@@H]2CCC(=C[C@H]2OC(=O)C(=C)[C@H]12)COC3O (some centres undefined),,,,37.1 µM (inactive),,
O=c1c(O)c(-c2ccccc2)n(O)c2ccc(Cl)cc12,,20.3 µM (inactive),26.8 µM (inactive),,37.3 µM (inactive),GI50 (HOP-18): 47.8 µM (inactive); GI50 (RXF 631): 27.5 µM (inactive); GI50 (DMS-114): 23 µM (inactive)
NC(=O)C[S+]([O-])CC(N)C(=O)O (centres undefined),,,,> 100 µM (inactive),,
CCCCCC(C)(C)CCC(=O)OC1OC(COC2OC(COC3OC(CO)C(O)C(O)C3O)C(O)C(O)C2O)C(O)C(O)C1O (centres undefined),,,,> 100 µM (inactive),,
COC(=O)C1CC/C(=N/c2ccc(C)cc2C)N1 (centres undefined),> 100 µM (inactive),> 100 µM (inactive),> 100 µM (inactive),,> 100 µM (inactive),GI50 (HOP-18): > 100 µM (inactive); GI50 (RXF 631): > 100 µM (inactive); GI50 (XF498): > 100 µM (inactive)
N/C(CSCCSC/C(N)=N/O)=N\O,,,,> 100 µM (inactive),,
COC(=O)c1c[nH]cc1CCc1c[nH]cc1C(=O)OC,> 100 µM (inactive),> 100 µM (inactive),,,> 100 µM (inactive),GI50 (XF498): > 100 µM (inactive)
CC1CC(C)C(C(O)CC2CC(=O)N(c3ccccc3)C(=O)C2)C(O)C1 (centres undefined),> 100 µM (inactive),> 100 µM (inactive),> 100 µM (inactive),,> 100 µM (inactive),GI50 (HOP-18): > 100 µM (inactive); GI50 (DMS-114): > 100 µM (inactive)
COC(=O)c1c(-c2cc(OC)c(OC)c(OC)c2)oc2ccccc2c1=O,> 100 µM (inactive),84.9 µM (inactive),52 µM (inactive),,> 100 µM (inactive),GI50 (HOP-18): > 100 µM (inactive)
Cn1c(=O)c2nc(CCNC(=O)c3ccccc3)[nH]c2n(C)c1=O,,,,> 100 µM (inactive),,
CN(C)/C(F)=P\C(F)(F)F (centres undefined),> 100 µM (inactive),> 100 µM (inactive),> 100 µM (inactive),,> 100 µM (inactive),GI50 (HOP-18): > 100 µM (inactive); GI50 (DMS-114): > 100 µM (inactive); GI50 (XF498): > 100 µM (inactive)
COc1ccc2c3c1OC1C4(CCC5C(C2)N(CC2CC2)CCC351)OCCO4 (centres undefined),,,,> 100 µM (inactive),,
COc1ccc(/C=C2\CCC(C)/C(=C\c3ccc(OC)c(OC)c3)C2=O)cc1OC (centres undefined),,,,4.6 µM (inactive),,
CCOc1ccc(NCC2CC/C(=C\C=C\c3ccccc3)C2=O)cc1 (centres undefined),,,,15.2 µM (inactive),,
CC1C2C=CC1C(c1c3ccc(=O)c(O)c-3oc3c(O)c(O)ccc13)C2C(=O)O (centres undefined),,,,> 100 µM (inactive),,
COc1ccc(-c2c(C#N)c(S)n(NS(=O)(=O)c3ccc(C)cc3)c(=O)c2C#N)cc1,,,,13.4 µM (inactive),,
COc1ccc(SS(=O)(=O)c2ccc(OC)cc2)cc1,19.5 µM (inactive),,21.9 µM (inactive),,53.7 µM (inactive),GI50 (HOP-18): 22.5 µM (inactive); GI50 (RXF 631): 39 µM (inactive); GI50 (DMS-114): 16 µM (inactive)
CC(C)NCC(O)COC(=O)c1cccs1 (centres undefined),> 100 µM (inactive),> 100 µM (inactive),> 100 µM (inactive),,> 100 µM (inactive),GI50 (RXF 631): > 100 µM (inactive); GI50 (XF498): > 100 µM (inactive)
c1cc(C2N3CCCN2CC3)ccn1 (centres undefined),,,,> 100 µM (inactive),,
CCOC(=N)CC(=O)Nc1ccccc1CC,> 100 µM (inactive),> 100 µM (inactive),> 100 µM (inactive),,> 100 µM (inactive),GI50 (HOP-18): > 100 µM (inactive); GI50 (RXF 631): > 100 µM (inactive); GI50 (XF498): > 100 µM (inactive)

SMILES,GI50 (M19-MEL),GI50 (DMS-273),GI50 (DLD-1),GI50 (BT-549),GI50 (SNB-78),also measured
Cc1ccc2nc(-c3ccc(N4C(=O)C(Cl)C4c4ccc(Cl)cc4)cc3)sc2c1 (centres undefined),,,,36.7 µM (inactive),,
CN1C(=O)C(=O)N2c3ccc(Cl)cc3C3(c4ccccc4)N=CC12O3 (centres undefined),3.57 µM (inactive),4.35 µM (inactive),2.83 µM (inactive),,6.7 µM (inactive),GI50 (HOP-18): 20.4 µM (inactive); GI50 (DMS-114): 3.21 µM (inactive); GI50 (XF498): 3.13 µM (inactive)
N#Cc1[nH]c(=S)[nH]c1N,,,,> 100 µM (inactive),,
c1ccc(Nc2nnc(CSc3nc(-c4ccccc4)c(-c4ccccc4)[nH]3)s2)cc1,15.3 µM (inactive),16.8 µM (inactive),53.8 µM (inactive),,30.1 µM (inactive),GI50 (DMS-114): 27.5 µM (inactive)
C[C@@H]1C(=O)CC2C(C)(C)CCC[C@]2(C)[C@@]12CC[C@]1(C=COC1)O2 (some centres undefined),38.1 µM (inactive),34.2 µM (inactive),,,41.2 µM (inactive),GI50 (HOP-18): > 100 µM (inactive); GI50 (DMS-114): 35.6 µM (inactive)
c1ccc2sc(C3(N4CCCCC4)CCCCCC3)cc2c1,,,,24.7 µM (inactive),,
COc1cc(C[C@H]2c3cc(OC)c(OC)cc3CCN2C)c(Oc2cc3c(cc2OC)-c2c(OC)c(OC)cc4c2[C@H](C3)N(C)CC4)cc1OC [THALICARPINE],8.87 µM (inactive),10.7 µM (inactive),15.1 µM (inactive),6.52 µM (inactive),,GI50 (RXF 631): 5.52 µM (inactive); GI50 (DMS-114): 9.1 µM (inactive); GI50 (XF498): 8.97 µM (inactive)
CCCCc1ccc(Nc2nc(Cl)c3ccn(C4CC(Oc5ccc(C)cc5)C(COc5ccc(C)cc5)O4)c3n2)cc1 (centres undefined),,,,12.6 µM (inactive),,
O=C(N/N=C(COc1ccccc1Cl)\N=C\c1ccncc1)c1ccncc1,,,,> 100 µM (inactive),,
CCCCCCCCCCCCCCCC(=O)OCCOCCOCCOCCOCCOC(=O)CCCCCCCCCCCCCCC,> 100 µM (inactive),> 100 µM (inactive),> 100 µM (inactive),,> 100 µM (inactive),GI50 (HOP-18): > 100 µM (inactive); GI50 (RXF 631): > 100 µM (inactive); GI50 (DMS-114): > 100 µM (inactive)
CCCCc1ccc(Nc2nc(Cl)c3ncn(C4CC(Oc5ccc(C)cc5)C(COc5ccc(C)cc5)O4)c3n2)cc1 (centres undefined),,,,> 100 µM (inactive),,
Cc1ccc(NC(=O)CCC(=O)C(C#N)c2ccc(Cl)cc2)cc1C (centres undefined),> 100 µM (inactive),> 100 µM (inactive),> 100 µM (inactive),,> 100 µM (inactive),GI50 (HOP-18): > 100 µM (inactive); GI50 (DMS-114): > 100 µM (inactive); GI50 (XF498): > 100 µM (inactive)
CC(C)c1cc(OCC(O)CO)cc(C(C)C)c1 (centres undefined),> 100 µM (inactive),> 100 µM (inactive),> 100 µM (inactive),,> 100 µM (inactive),GI50 (HOP-18): > 100 µM (inactive); GI50 (DMS-114): > 100 µM (inactive); GI50 (XF498): > 100 µM (inactive)
CC1(C)OC(CCC#N)CN1C(=O)OCc1ccccc1 (centres undefined),,,,20.7 µM (inactive),,
CCN1CCC(CNC(=O)c2ccc(N)cc2)N1CC (centres undefined),,,,> 100 µM (inactive),,
Brc1ccc2c3c1[C@H]1O[C@H]1c1cccc(c1-3)[C@@H]1O[C@H]21,,,,16.5 µM (inactive),,
Cc1cc(Cc2cc(Cc3cc(C)cc(C(C)(C)C)c3O)c(C)cc2C)c(O)c(C(C)(C)C)c1,,,,17.5 µM (inactive),,
COCOC1/C=C/CCCC#C[C@H](C)C(=O)CC1 (some centres undefined),,,,12.6 µM (inactive),,
Cc1cc2nc3n(c2cc1C)C(c1c(F)cccc1F)SC3 (centres undefined),,,,28.1 µM (inactive),,
O=C(O)Cc1cccc2c1OC(c1ccccc1)C(C(=O)c1ccccc1)C2=O (centres undefined),,,,> 100 µM (inactive),,
CC(C)(CO)CNc1nc(N)nc(Cl)c1/C=N/O,,,,23.6 µM (inactive),,
